Patent US6482805B2 (Parker Hughes Institute, priority 1998, dated 2002)

Columns and labels:
[1] = test system: human sperm; assay: Sperm motility assay by CASA (Example 1); format: cell-based; conditions: for EC50: read-out: EC50, sperm motility
Experimental: All donor specimens were obtained after informed consent and in compliance with the guidelines of the Wayne Hughes Institute Institutional Review Board. Motile sperm (≧10×10^6/ml), were suspended in 0.5 ml of Biggers, Whitten, and Whittingam's medium (BWW) containing 25 mM HEPES (Irvine Scientific, Santa Ana, Calif.), and 0.3% bovine serum albumin (BSA; Fraction V, Sigma Chemical Co, St. Louis, Mo.) in the presence and absence of serial two-fold dilutions of test substance (300 μM to 4.6 μm) in 1% DMSO. The stock solutions of synthetic WHI compounds were prepared in DMSO (10 mg/ml) and diluted in DMSO to yield the desired concentrations. Corresponding volume of DMSO (1%) was added to control tubes. N-9 was diluted in BWW-0.3% BSA (pH 7.4) to yield the desired concentrations (4.6 to 300 μM). After 3 hours of incubation at 37° C., the percentage of motile sperm was evaluated by computer-assisted sperm analysis (CASA) as described [L. J. Burkman, Fertil. Steril. […] The percent motilities were compared with sham-treated control suspensions of motile sperm. […] Non-linear regression analyses were used to determine the EC50 values from the concentration effect curves using GraphPad PRISM software (San Diego, Calif.).
For evaluating sperm motion kinematics using CASA, 4 μl each of sperm suspension was loaded into two 20-μm Microcell chambers (Conception Technologies) that was placed onto a counting chamber at 37° C. At least 5-8 fields per chamber were scanned for analysis using a Hamilton Thorne Integrated Visual Optical System (IVOS), version 10 instrument (Hamilton Thorne Research Inc., Danvers, Mass.). Each field was recorded for 30 seconds. […] The performance of the analyzer was periodically checked using the play-back function. The attributes of sperm kinematic parameters evaluated included numbers of motile (MOT) and progressively (PRG) motile sperm; curvilinear velocity (VCL; a measure of the total distance traveled by a given sperm during the acquisition divided by the time elapsed); average path velocity (VAP; the spatially averaged path that eliminates the wobble of the sperm head), straight line velocity (VSL; the straight-line distance from beginning to end of track divided by time taken), beat cross frequency (BCF, frequency of sperm head crossing sperm average path), the amplitude of lateral head displacement (ALH; the mean width of sperm head oscillation) and the derivatives, straightness ([…]); linearity (LIN=100×VSL/VCL; departure of sperm track from a straight line). Data from each individual cell track were recorded and analyzed. At least 200 motile sperm were analyzed for each aliquot sampled.

[2] = test system: human sperm; assay: cells; format: cell-based
Experimental: All donor specimens were obtained after informed consent and in compliance with the guidelines of the Hughes Institute Institutional Review Board. To evaluate the spermicidal effects of ZDV derivatives, highly motile fraction of pooled donor sperm (n 8) were prepared from liquefied normospermic semen by discontinuous (90-45%) gradient centrifugation using Enhance-S-Plus (Conception technologies, San Diego, Calif.) cell isolation medium as previously described. [D'Cruz O J, et al., Biol Reprod 1999; 60:1419-1428; D'Cruz O J, et al., Biol Reprod 1995; 53:118-1130; and D'Cruz O J, et al., Biol Reprod 1998; 58:1515-1526]. The resulting pellet was washed twice and resuspended in 1-ml of Biggers, Whitten, and Whittingam's medium (BWW) (Irvine Scientific, Santa Ana, Calif.) containing 3% BSA (fraction V; Sigma Chemical Co., St. Louis, Mo.). One-ml aliquots of the sperm suspension were centrifuged (500× g, 5 min) and incubated at 45° for 90 min at 37° C. in 5% CO2 atmosphere. The supernatant containing primarily motile sperm was aspirated carefully, washed once in BWW medium containing 25 mM HEPES and 0.3% BSA and resuspended in the same medium. Pooled motile sperm (=10×10^6/ml) prepared from 3-5 donors were suspended in 1-ml of BWW-0.3% BSA in the presence and absence of serial 2-fold dilutions of test substance (1.9 μm to 500 μM) in 0.5% dimethyl sulfoxide (DMSO). The stock solutions of synthetic compounds were prepared in DMSO (100 mM) and diluted in medium to yield the desired concentrations. A corresponding volume of DMSO (0.5%) was added to control tubes. After 3 hour incubation at 37° C., the percentage of motile sperm was evaluated by computer-assisted sperm motion analysis (CASA) [D'Cruz O J, et al., Biol Reprod 1998; 58:1515-1526; D'Cruz O J, et al., Mol Hum Reprod 1998; 4:683-693; D'Cruz O J, et al., Biol Reprod 1999; 60:435-444]. The percentage motilities were compared with those of sham-treated control suspensions of motile sperm. The spermicidal activity of test compounds was expressed as the mean EC50 values (the final concentration of the compound in the medium that decreases the proportion of motile sperm by 50%) calculated from three independent experiments.
For CASA, 4 μl of each sperm suspension were loaded into a 20-μm Microcell chamber at 37° C. Eight to ten fields per chamber were scanned for analysis using a Hamilton Thome Integrated Visual Optical System (IVOS), version 10 instrument (Hamilton Thome Research Inc., Danvers, Mass.) [see, D'Cruz O J, et al. Biol Reprod 1998; 58:1515-1526; and D'Cruz O J, et al., Mol Hum Reprod 1998; 4:683-693; and D'Cruz O J, et al., Biol Reprod 1999; 60:435-444]. Each field was recorded for 30 sec. The computer calibrations were set at 30 frames at a frame rate of 30/s. Other settings were as follows: minimum contrast 8; minimum size 6; low-size gate, 1.0; high-size gate, 2.9; low-intensity gate, 0.6; high-intensity gate, 1.4; phase-contrast illumination; low path velocity at 10 μm/s, and threshold straightness at 80%; magnification factor, 1.95.
The sperm kinematic parameters that were determined included numbers of motile (MOT) and progressively (PRG) motile sperm; curvilinear velocity (VCL; a measure of the total distance traveled by a given sperm during the acquisition divided by the time elapsed); average path velocity (VAP; the spatially averaged path that eliminates the wobble of the sperm head), straight line velocity (VSL; the straight-line distance from beginning to end of track divided by time taken), beat cross frequency (BCF, frequency of sperm head crossing sperm average path), the amplitude of lateral head displacement (ALH; the mean width of sperm head oscillation), straightness (STR=VSL/VAP×100); linearity (LIN=VSL/VCL×100; departure of sperm track from a straight line). Data from each individual cell track were recorded and analyzed. At least 200 motile sperm were analyzed for each aliquot sampled.

[3] = 3 hour incubation, mean ± SD of three experiments, read-out: EC50 (sperm motility, CASA) (converted)
[4] = Table 4, mean of three experiments, read-out: Sperm EC50
[5] = 3 hours incubation at 37° C., CASA

| Compound | EC50 [2, 3] | EC50 [2, 4] | EC50 [1, 5] | also measured |
| --- | --- | --- | --- | --- |
| 5-Bromo-6-methoxy-5,6-dihydro-3′-azidothymidine 5′-[Phenyl methoxyalaninyl phosphate] [WHI-04] | 35 ± 5 µM | 35 µM | – | spermicidal activity, in words ([1]; compared with related derivatives): improved spermicidal activity over WHI-01 |
| 5-Bromo-6-methoxy-5,6-dihydro-3′-azidothymidine-5′-[(p-Fluorophenyl methoxyalaninyl phosphate] [WHI-06] | 15 µM | 15 µM | 15 µM | – |
| 5-bromo-6-methoxy-5,6-dihydro-3 ′-azidothymidine-5 ′-(p-methoxyphenyl) methoxyalaninyl phosphate [WHI-05] | 24 µM | 24 µM | 29 µM | – |
| CCCCCCCCCc1ccc(OCCOCCOCCOCCOCCOCCOCCOCCOCCO)cc1 [Compound N-9, nonoxynol-9, reference compound] | – | – | – | EC50 ([1]; Homo sapiens, Sperm, 3 hours incubation at 37° C., CASA): 81 µM; EC50 ([2]; Homo sapiens, Sperm, Table 4, mean of three experiments, read-out: Sperm EC50): 81 µM |
| COC(=O)C(C)NP(=O)(OCC1OC(N2C(=O)NC(=O)C(C)(Br)C2OC)CC1N=[N+]=[N-])Oc1ccc(Br)cc1 (centres unmarked) [WHI-07, 5-Bromo-6-methoxy-5,6-dihydro-3′-azidothymidine-5′-(p-Bromophenyl Methoxyalaninyl Phosphate)] | – | – | – | EC50 ([1]; Homo sapiens, Sperm, 3 h): 6 µM; EC50 ([2]; Homo sapiens, Sperm, 3 h, read-out: EC50 (sperm motility, CASA)): 5 µM; EC50 ([2]; Homo sapiens, Sperm, read-out: Sperm EC50): 5 µM |
